The values that follow come from patent publication US11485713B2, “Androgen receptor modulators and methods for their use” (ESSA Pharma, Inc., priority 2018, dated 2022).

The structures appear in SMILES notation. pIC50: −log10 of the molar value.

The subject of one series is LNCaP ARE-Luc. Kind of series: Luciferase assay in LNCaP cell lysates (LNCaP ARE-Luc). To be noted: Homo sapiens, Firefly Luciferase Assay System, read-out: LNCaP ARE-Luc % inhibition IC50 Ranges. It is filed as cell-based. The procedure:
Lysates were thawed on ice then collected into V-bottom 96-well tissue culture plates. Lysates were centrifuged at 4° C. for 5 minutes at 4000 rpm. To measure luminescence of LNCaP cell lysates the Firefly Luciferase Assay System (Promega) was employed, according to manufacturer's protocol. Relative luminescence units (RLU) in cell lysates were detected for 10 seconds using Promega GoMax-Multi Detection Luminometer (Promega).
Statistical analyses were performed using GraphPad Prism (Version 6.01 for Windows; La Jolla, Calif., USA). Comparisons between treatment and control groups were compared using Two-Way ANOVA with post-hoc Dunnett's and Tukey's tests. Differences were considered statistically significant at P values less than 0.05. Densitometric quantification of relative AR levels was determined by Image.

The nature of series [1]: Microsomal stability assay, MLM. It is filed as in vitro ADME. To be noted: mouse, pH 7.4, 1 μM test compound, 0.5 mg/mL liver microsomes protein, 37° C., 0-60 min, read-out: MLM +/− NADPH: Clint (μL/min/mg protein). The source says: (§1) Microsomal Stability Assay: Microsomal stability assay is a widely used in vitro model to characterize the metabolic conversion by phase I enzymes, such as cytochrome P450 (CYP) enzymes. Since metabolism is known to be highly variable in different species, microsomal stability assay is commonly run in multiple species. Metabolic stability of testing compound can be evaluated using human, rat, mouse, or other animal liver or intestine microsomes to predict intrinsic clearance.
(§2) The assay was carried out in 96-well microtiter plates at 37° C. Reaction mixtures (25 μL) contained a final concentration of 1 μM test compound, 0.5 mg/mL liver microsomes protein, and 1 mM NADPH and/or 1 mM UDPGA (with alamethicin) in 100 mM potassium phosphate, pH 7.4 buffer with 3 mM MgCl2. The incubation was done with N=1, but duplicate incubation at each time point can be prepared if necessary. At each of the time points (for example, 0, 15, 30, and 60 minutes), 150 μL of quench solution (100% acetonitrile with 0.1% formic acid) with internal standard was transferred to each well. Besides the zero minute controls, mixtures containing the same components except the NADPH can also be prepared as the negative control. Verapamil was included as a positive control to verify assay performance. Plates were sealed, vortexed, and centrifuged at 4° C. for 15 minutes at 4000 rpm. The supernatant is transferred to fresh plates for LC/MS/MS analysis.
(§3) Summarized conditions: [Compound]=1 μM, [LM]=0.5 mg/mL, [NADPH]=1 mM and/or [UDPGA]=1 mM, Buffer=100 mM Potassium Phosphate, pH 7.4 with 3 mM MgCl2, Time=0, 15, 30, and 60 min, and Temperature=37° C.
(§4) All samples were analyzed on LC/MS/MS using an AB Sciex API 4000 instrument, coupled to a Shimadzu LC-20AD LC Pump system. Analytical samples were separated using a Waters Atlantis T3 dC18 reverse phase HPLC column (20 mm×2.1 mm) at a flow rate of 0.5 mL/min. The mobile phase consisted of 0.1% formic acid in water (solvent A) and 0.1% formic acid in 100% acetonitrile (solvent B).
(§5) The extent of metabolism is calculated as the disappearance of the test compound, compared to the 0-min time incubation. Initial rates are calculated for the compound concentration and used to determine half-life (t½) values and subsequently, the intrinsic clearance (Clint). Clint=(0.693)(1/t½ (min))(g of liver/kg of body weight)(mL incubation/mg of microsomal protein)(45 mg of microsomal protein/g of liver weight)
A general note: Microsomes from liver hold many membrane-bound enzymes, among them those of drug oxidation.

Series [2] is described as follows: Microsomal stability assay, HLM. Type of series: in vitro ADME. To be noted: human, pH 7.4, 1 μM test compound, 0.5 mg/mL liver microsomes protein, 37° C., 0-60 min, read-out: HLM +/− NADPH: Clint (μL/min/mg protein).
Excerpt: as §1, §2, §3, §4, §5

As a reminder, the pIC50 is −log10 of the IC50, conventionally taken in molar units. For the molecule `Cc1cc(C(C)(C)c2ccc(OCC(=O)CNS(C)(=O)=O)cc2)ccc1OCCCCl` [Compound A1], the pIC50 in the series with LNCaP ARE-Luc was more than 7.00. The microsomal CLint at 1 μM in series [1] and in series [2] was not below 48 µL/min/mg each time.

With `Cc1cc(OCCCCl)ccc1C(C)(C)c1ccc(OCC(=O)CNS(C)(=O)=O)cc1` [Compound A2], in the series on LNCaP ARE-Luc, the pIC50 was 6.60 to 7.00. In addition, the microsomal CLint at 1 μM in series [1] and in series [2] was not below 48 µL/min/mg throughout.

Consider `CC(C)(c1ccc(OCC(=O)CNS(C)(=O)=O)cc1)c1ccc(OCCCCl)c(Cl)c1` [Compound A5], for which the pIC50 with LNCaP ARE-Luc was more than 7.00. Besides, the microsomal CLint at 1 μM in series [1] and in series [2] was not below 48 µL/min/mg throughout.

With `Cc1cc(C(C)(C)c2ccc(OCCCCl)cc2)ccc1OCC(=O)CNS(C)(=O)=O` [Compound A9], the pIC50 in the series on LNCaP ARE-Luc was not above 6.60. Besides, the microsomal CLint at 1 μM in series [1] and in series [2] was not below 48 µL/min/mg throughout.

With `CC(C)(c1ccc(OCCCCl)cc1)c1ccc(OCC(=O)CNS(C)(=O)=O)c(Cl)c1` [Compound A13], in the series on LNCaP ARE-Luc, the pIC50 was not above 6.60. In addition, the microsomal CLint at 1 μM in series [1] and in series [2] was not below 48 µL/min/mg each time.

Regarding `CS(=O)(=O)NCC(=O)COc1ccc(Cc2cc(Cl)c(OCCCCl)c(Cl)c2)cc1` [Compound A21], in the series with LNCaP ARE-Luc, the negative-log IC50 (pIC50) was not above 6.60. The microsomal CLint at 1 μM in series [1] and in series [2] was not below 48 µL/min/mg each time.

In the case of `CN(c1ccc(OCC(=O)CNS(C)(=O)=O)cc1)c1cc(Cl)c(OCCCCl)c(Cl)c1` [Compound A23], in the series on LNCaP ARE-Luc, the pIC50 was not above 6.60. The microsomal CLint at 1 μM in series [1] and in series [2] was not below 48 µL/min/mg throughout.

On to `CS(=O)(=O)NCC(=O)COc1ccc(-c2cc(Cl)c(OCC(O)CCl)c(Cl)c2)cc1` (stereo not drawn) [Compound A25], for which the pIC50 in the series with LNCaP ARE-Luc is not above 6.60. The microsomal CLint at 1 μM in series [1] and in series [2] was not below 48 µL/min/mg throughout.

In the case of `CC(C)(c1ccc(NCC(=O)CNS(C)(=O)=O)cc1)c1cc(Cl)c(OCCCCl)c(Cl)c1` [Compound A27], in the series on LNCaP ARE-Luc, the pIC50 is not above 6.60. The values for the microsomal CLint at 1 μM in series [1] and in series [2] were 12 to 48 µL/min/mg and not below 48 µL/min/mg, respectively.

Turning to `CN(CC(=O)CNS(C)(=O)=O)c1ccc(C(C)(C)c2cc(Cl)c(OCCCCl)c(Cl)c2)cc1` [Compound A28], the negative logarithm of the IC50 (pIC50) in the series with LNCaP ARE-Luc was not above 6.60. For the same molecule, the microsomal CLint at 1 μM in series [1] and in series [2] was 12 to 48 µL/min/mg throughout.

Take `CC(C)NC(=O)COc1ccc(C(C)(C)c2cc(Cl)c(OCCCCl)c(Cl)c2)cc1` [Compound A30]: the negative logarithm of the IC50 (pIC50) in the series with LNCaP ARE-Luc is not above 6.60. The microsomal CLint at 1 μM in series [1] was less than 12 µL/min/mg; in series [2] it was 12 to 48 µL/min/mg.

In the case of `CC(C)(c1ccc(OCC(=O)CNS(C)(=O)=O)cc1)c1cc(Cl)c(CCCCCl)c(Cl)c1` [Compound A34], the negative-log IC50 (pIC50) in the series on LNCaP ARE-Luc was not above 6.60. Also, the microsomal CLint at 1 μM in series [1] and in series [2] was not below 48 µL/min/mg throughout.

As to `CC(C)(c1ccc(OCC(=O)CNS(C)(=O)=O)cc1)c1cc(Cl)c(OCc2cccc(Cl)c2)c(Cl)c1` [Compound A37], in the series on LNCaP ARE-Luc, the pIC50 was not above 6.60. Moreover, the microsomal CLint at 1 μM in series [1] and in series [2] was not below 48 µL/min/mg each time.

In the case of `CC(C)(c1ccc(OCC(N)=O)cc1)c1cc(Cl)c(OCCCCl)c(Cl)c1` [Compound A42], the pIC50 with LNCaP ARE-Luc is not above 6.60. Moreover, the figures for the microsomal CLint at 1 μM in series [1] and in series [2] were less than 12 µL/min/mg and 12 to 48 µL/min/mg, respectively.

Turning to `CS(=O)(=O)NCC(=O)COc1ccccc1Cc1cc(Cl)c(OCCCCl)c(Cl)c1` [Compound A49], the pIC50 with LNCaP ARE-Luc was not above 6.60. The microsomal CLint at 1 μM in series [1] and in series [2] was not below 48 µL/min/mg in each case.

On to `CC(=O)NCC(=O)COc1ccc(C(C)(C)c2cc(Cl)c(OCCCCl)c(Cl)c2)cc1` [Compound A65], for which, in the series with LNCaP ARE-Luc, the negative-log IC50 (pIC50) was not above 6.60. Further, in series [2], the microsomal CLint at 1 μM is not below 48 µL/min/mg.

Turning to `CN(CC(=O)COc1ccc(C(C)(C)c2cc(Cl)c(OCCCCl)c(Cl)c2)cc1)S(C)(=O)=O` [Compound A69], the pIC50 in the series on LNCaP ARE-Luc is not above 6.60. In series [2], the microsomal CLint at 1 μM is not below 48 µL/min/mg.

As for `CC(C)N(c1ccc(OCC(=O)CNS(C)(=O)=O)cc1)c1cc(Cl)c(OCCCCl)c(Cl)c1` [Compound A70], in the series on LNCaP ARE-Luc, the pIC50 was not above 6.60. In series [2], the microsomal CLint at 1 μM is not below 48 µL/min/mg.

For the molecule `CC(=O)N(c1ccc(OCC(=O)CNS(C)(=O)=O)cc1)c1cc(Cl)c(OCCCCl)c(Cl)c1` [Compound A71, N-(3,5-dichloro-4-(3-chloropropoxy)phenyl)-N-(4-(3-(methylsulfonamido)-2-oxopropoxy)phenyl)acetamide], in the series with LNCaP ARE-Luc, the pIC50 is not above 6.60. Besides, the microsomal CLint at 1 μM in series [2] is not below 48 µL/min/mg.

In the case of `CS(=O)(=O)NCC(=O)COc1ccc(-c2cc(Cl)c(OCCCCl)c(Cl)c2)cc1` [Compound A73, N-(3-((3′,5′-dichloro-4′-(3-chloropropoxy)-[1,1′-biphenyl]-4-yl)oxy)-2-oxopropyl)methanesulfonamide], the pIC50 in the series on LNCaP ARE-Luc is not above 6.60. Further, the microsomal CLint at 1 μM in series [2] is 12 to 48 µL/min/mg.

In the case of `CS(=O)(=O)NCC(=O)COc1ccc(CCc2cc(Cl)c(OCC(O)CCl)c(Cl)c2)cc1` (stereo not drawn) [Compound A75, N-(3-(4-(3,5-dichloro-4-(3-chloro-2-hydroxypropoxy)phenethyl)phenoxy)-2-oxopropyl)methanesulfonamide], the pIC50 with LNCaP ARE-Luc is 6.60 to 7.00. Also, in series [2], the microsomal CLint at 1 μM is not below 48 µL/min/mg.

As to `CS(=O)(=O)NCC(=O)CCOc1ccc(-c2cc(Cl)c(OCCCCl)c(Cl)c2)cc1` [Compound A76], the pIC50 in the series with LNCaP ARE-Luc was not above 6.60. For the same molecule, the microsomal CLint at 1 μM in series [2] is 12 to 48 µL/min/mg.

For `CC(C)(c1ccc(OCC(=O)CNS(C)(=O)=O)cc1)c1cc(Cl)c(OCc2ccccc2Cl)c(Cl)c1` [Compound A79], the pIC50 in the series with LNCaP ARE-Luc is not above 6.60. Moreover, the microsomal CLint at 1 μM in series [2] was not below 48 µL/min/mg.

On to `CC(C)(c1ccc(OCC(=O)NNS(C)(=O)=O)cc1)c1cc(Cl)c(OCCCCl)c(Cl)c1` [Compound A80], for which, in the series with LNCaP ARE-Luc, the pIC50 is not above 6.60. Also, the microsomal CLint at 1 μM in series [2] fell in the range of 12 to 48 µL/min/mg.

`CC(C)(c1ccc(C(=O)CCCNS(C)(=O)=O)cc1)c1cc(Cl)c(OCCCCl)c(Cl)c1` [Compound A84]: the pIC50 with LNCaP ARE-Luc is not above 6.60. For the same molecule, in series [2], the microsomal CLint at 1 μM fell in the range of 12 to 48 µL/min/mg.

For `CC(=O)C(=O)Nc1ccc(C(C)(C)c2cc(Cl)c(OCCCCl)c(Cl)c2)cc1` [Compound A85], the pIC50 in the series with LNCaP ARE-Luc is not above 6.60. The microsomal CLint at 1 μM in series [2] is not below 48 µL/min/mg.

In the case of `CC(C)(c1ccc(OCC(=O)C(F)(F)F)cc1)c1cc(Cl)c(OCCCCl)c(Cl)c1` [Compound A91, 3-(4-(2-(3,5-dichloro-4-(3-chloropropoxy)phenyl)propan-2-yl)phenoxy)-1,1,1-trifluoropropan-2-one], the pIC50 with LNCaP ARE-Luc was not above 6.60. Besides, the microsomal CLint at 1 μM in series [2] is less than 12 µL/min/mg.

As to `CC(C)(c1ccc(NC(=O)C(=O)C(F)(F)F)cc1)c1cc(Cl)c(OCCCCl)c(Cl)c1` [Compound A93], in the series with LNCaP ARE-Luc, the pIC50 is not above 6.60. For the same molecule, the microsomal CLint at 1 μM in series [2] is less than 12 µL/min/mg.

`CC(C)(c1ccc(OC(F)(F)C(=O)CCNS(C)(=O)=O)cc1)c1cc(Cl)c(OCCCCl)c(Cl)c1` [Compound A94, N-(4-(4-(2-(3,5-dichloro-4-(3-chloropropoxy)phenyl)propan-2-yl)phenoxy)-4,4-difluoro-3-oxobutyl)methanesulfonamide]: in the series on LNCaP ARE-Luc, the pIC50 was not above 6.60. Also, in series [2], the microsomal CLint at 1 μM was not below 48 µL/min/mg.

Consider `CC(O)(CCl)COc1c(Cl)cc(C(C)(C)c2ccc(NC(=O)C(=O)C(F)(F)F)cc2)cc1Cl` (stereo not drawn) [Compound A95], for which the pIC50 in the series on LNCaP ARE-Luc was not above 6.60. The microsomal CLint at 1 μM in series [2] is less than 12 µL/min/mg.
